Measured values from US10407399B2, “Ion-activated photolabile compounds” (HOWARD HUGHES MEDICAL INSTITUTE, priority 2015, dated 2019).
Where “and” joins values, the source holds several entries; their conditions need not be identical. Equal values may be shown once. Blank lines part the entries; values can stand above or below the compound they belong to.

Assays:
cultured neurons = assay: Light-gated integration of Ca^2+ evoked by electrical stimulation; assay type: cell-based, rat; settings: for rate k of increase in cellular fluorescence versus irradiation time: n=20
Description: The present compound was then utilized to measure calcium ion changes in neurons evoked by electrical activity. Low-affinity reversible Ca^2+ indicators are advantageous for use in biological systems as their low buffering capacity preserves native calcium ion dynamics. Nevertheless, poor signal-to-background ratios of such indicators may restricts their utility to subcellular compartments undergoing extremely high calcium flux (e.g., dendritic spines). […] Cells were incubated with AM ester 403 and subjected to the photoactivation imaging protocol. In one population of cells neuronal action potential firing was elicited by field stimulation at 80 Hz.
(§1) HEK293T/17 cells (ATCC) were cultured according to instructions in poly-D-lysine-coated 24-well CellBind plates (Corning) in Dulbecco's modified eagle medium (DMEM; Invitrogen) supplemented with 10% v/v fetal bovine serum (FBS; Invitrogen) and maintained at 37° C. in a humidified 5% CO2 v/v environment. Primary rat hippocampal neurons were prepared and cultured as described previously. Imaging buffer for HEK293T/17 cells consisted of Dulbecco's phosphate buffered saline (DPBS; Invitrogen). Imaging buffer for cultured neurons consisted of: 145 mM NaCl, 2.5 KCl, 10 mM glucose, 10 mM HEPES pH 7.4, 2 mM CaCl2, and 1 mM MgCl2. To load cells with the dosimeter, a stock solution of 403 (1 mM) in DMSO containing 10% w/v Pluronic F-127 (Sigma) was added to a final concentration of 10 μM in imaging buffer. Cells were incubated in this solution for 1 h at 37° C., after which the cells were washed with imaging buffer (3×) and imaged. The final imaging buffer wash for cultured neurons additionally contained pharmacological agents (10 μM CNQX, 10 μM (R)-CPP, 10 μM gabazine, and 1 mM (S)-MCPG; Tocris) to block spontaneous cellular activity.
(§2) Cells were imaged on a Olympus IX-81 microscope using a 10× or 20× objective and a DAPI filter set (Semrock DAPI-5060C-000; excitation: 352-402 nm, dichroic cutoff: 409 nm, emission: 417-477 nm) filtering a mercury arc lamp. Excitation/photoactivation light was attenuated using a neutral density filter giving a light intensity of 60 mW/cm^2. To raise intracellular calcium ion levels (FIGS. 19B, 21B, and 22B), cells were incubated with 10 μM ionomycin (Sigma) and 4 mM CaCl2 for 2 min prior to imaging.
Cultured neurons loaded with compound 403 were stimulated electrically to induce action potential firing at 80 Hz for one second prior to and during illumination with excitation/photoactivation light. A Grass S48 Stimulator (Grass Technologies) was used with a custom-built platinum wire field stimulation electrode.

[1] = system: cultured hippocampal neurons; assay: Live cell photoactivation imaging of neurons with or without ionomycin; assay type: cell-based, rat; settings: for rate k of cellular fluorescence increase versus irradiation time: 10 μM, 1 h loading, 365 nm
Description: The utility of the embodied system was then observed in a cellular context. The hexa-acetoxymethyl (AM) ester 403 of compound 402 was prepared (FIG. 8). This membrane-permeant compound enabled loading of cultured hippocampal neurons with the light-gated chemodosimeter. The overlap of the photouncaging wavelength (λ=351 nm) and the excitation spectra (λmax=402 nm) of the coumarin allowed simultaneous imaging and activation with a single light source centered at 365 nm.
as §1, §2

[2] = Determination of photochemical quantum yield (365 nm irradiation, fluorescence of released fluorophore); assay type: physicochemical; settings: for photochemical quantum yield (Φ) in the presence of Ca^2+: 10 mM CaCl2, 30 mM MOPS pH 7.2, 100 mM KCl; for photochemical quantum yield (Φ) in the presence of Ca^2+ / photochemical quantum yield (Φ) in the absence of Ca^2+: 365 nm; for photochemical quantum yield (Φ) in the absence of Ca^2+: 10 mM EGTA, 30 mM MOPS pH 7.2, 100 mM KCl; for enhancement in photochemical quantum yield upon Ca^2+ binding: presence vs absence of Ca^2+
Description: (§3) All measurements were taken at ambient temperature (23±2° C.). […] Spectroscopy was performed using 1-cm path length quartz or polymethacrylate cuvettes (Starna or Fisher). Absorption measurements were recorded on a Cary Model 100 spectrometer (Varian). Fluorescence measurements spectra were recorded on a Cary Eclipse fluorometer (Varian). Buffer pH was adjusted with KOH. Curve fitting was accomplished with GraphPad Prism 5.
Photochemistry was performed in 1-cm path length/3.5 mL quartz cuvettes (Starna) in a Luzchem LZC 4V photoreactor equipped with 365 nm UV lamps, a carousel, and a timer. The irradiation was determined by potassium ferrioxalate actinometry.^3 A solution of 60 mM K3Fe(C2O4)3 was irradiated using the photoreactor setup. Released Fe^2+ was determined by complexometry with 1,10 phenanthroline. Using the known photochemical quantum yield of this process, we determined the photon flux (I)=[…]. Samples (10 μM, 3.5 mL) were irradiated in either zero calcium buffer (30 mM MOPS pH 7.2, 10 mM EGTA, 100 mM KCl) or calcium-containing buffer (30 mM MOPS pH 7.2, 10 mM CaCl2, 100 mM KCl) and a small aliquot (30 μL) was removed and diluted 100-fold in matching buffer. The fluorescence of these samples was then measured (coumarin 402: λex/λem=402/447 nm; Tokyo Green compound S13: λex/λem=496/520 nm). The quantum yield (Φ, mol/ein) was determined by fitting a plot of fluorescence vs. irradiation time to a one-phase association described by equation 1: Ft=Fmax−Fmax(e^−IσΦt) (1) where Fmax=maximal fluorescence, t=time (min), Ft=fluorescence at time t, I=irradiation (ein/min·cm^2), and σ=decadic extinction coefficient (cm^2/mol; 1000-fold higher than the value with units of M^−1 cm^−1 based on cuvette geometry). For compound 402 we determined Φ=4.8±0.2% (mean±SE) in the presence of 10 mM Ca^2+ and Φ=0.0079±0.0003% in the presence of 10 mM EGTA (FIG. 19B). For compound S13 we found Φ=1.63±0.05% in the presence of 10 mM Ca^2+ and Φ=0.0110±0.0004% in the presence of 10 mM EGTA (FIG. 20A).

[3] = Absorption spectrum in buffers containing varying [Ca^2+]; assay type: physicochemical
Text: The absorption spectrum of 402 was first examined in buffers containing varying [Ca^2+] (FIG. 19A). […] A small (<5%) but significant increase in absorption around 350 nm was also observed when calcium ion concentration is raised. However, the coumarin moiety dominates absorption in the UV with an extinction coefficient (e)=2.4×10^4 M^−1 cm^−1 at 350 nm. These absorbance changes indicate that chelation of calcium causes a switch from the colored quinoid form to the UV-absorbing aromatic form (FIG. 3).
as §3

[4] = Determination of Kd from fluorescence after photoactivation as a function of [Ca^2+]; assay type: binding; settings: methoxy replaced with pyrrolidine, versus 402; readout not stated
Description: as §3
For [Ca^2+]<40 μM, the free calcium concentration was controlled by a commercial EGTA buffer system (Invitrogen). […] For [Ca^2+]>40 μM, buffers were prepared with 1 mM EGTA and excess CaCl2 in 30 mM MOPS pH 7.2 and 100 mM KCl. Different buffer solutions containing 100 nM of 402 or S13 were irradiated in clean glass vials for 1 min using the photoreactor setup described above. The samples were then transferred to a black, clear bottom, 96-well polystyrene microplate with a nonbinding surface coating (Corning). Fluorescence was read from the bottom on a FlexStation3 fluorescence microplate reader (Molecular Devices; for coumarin 402: λex/λem=402/447 nm; for Tokyo Green compound S13: λex/λem=496/520 nm). The plot of fluorescence vs. [Ca^2+] was fit to one site-specific binding curve to determine the Kd. Found: 28.3±0.6 μM (±SE) for 402 and 28.0±0.8. μM for S13.

Compound: COc1ccc(N(CC(=O)OCOC(C)=O)CC(=O)OCOC(C)=O)c(OCCOc2cc([N+](=O)[O-])c(COc3ccc4cc(C(=O)N[C@H]5CC[C@H](N(CC(=O)OCOC(C)=O)CC(=O)OCOC(C)=O)CC5)c(=O)oc4c3)cc2N(CC(=O)OCOC(C)=O)CC(=O)OCOC(C)=O)c1 [compound 403, Bis(acetoxymethyl) 2,2′-((2-(2-(2-(bis(2-(acetoxymethoxy)-2-oxoethyl)amino)-4-(((3-(((1r,4r)-4-(bis(2-(acetoxymethoxy)-2-oxoethyl)amino)cyclohexyl)carbamoyl)-2-oxo-2H-chromen-7-yl)oxy)methyl)-5-nitrophenoxy)ethoxy)-4-methoxyphenyl)azanediyl)diacetate]
permanent increase in cellular fluorescence (cultured neurons; field stimulation at 80 Hz): 200%
rate increase in cellular fluorescence relative to unstimulated cells (cultured neurons; field stimulation at 80 Hz): 4 fold
rate k of increase in cellular fluorescence versus irradiation time (cultured neurons; with field stimulation at 80 Hz): 0.133 s⁻¹
rate k of increase in cellular fluorescence versus irradiation time (cultured neurons; without electrical stimulation): 0.0325 s⁻¹
increase in the accumulation of cellular fluorescence ([1]; cells pretreated with ionomycin vs control cells): 40 fold
fluorescence increase on illumination of control cells ([1]; control cells without ionomycin): did not elicit significant fluorescence increase
rate k of cellular fluorescence increase versus irradiation time ([1]; ionomycin-treated neurons): 0.240 s⁻¹
rate k of cellular fluorescence increase versus irradiation time ([1]; untreated neurons): 0.0060 s⁻¹

photochemical quantum yield (Φ) in the presence of Ca^2+ [2]: 1.6% and 1.63±0.05%
photochemical quantum yield (Φ) in the absence of Ca^2+ [2]: 0.011% and 0.0110±0.0004%
enhancement in photochemical quantum yield upon Ca^2+ binding [2]: 150 fold
Compound: COc1ccc(-c2c3ccc(=O)cc-3oc3cc(OCc4cc(N(CC(=O)O)CC(=O)O)c(OCCOc5cc(OC)ccc5N(CC(=O)O)CC(=O)O)cc4[N+](=O)[O-])ccc23)c(C)c1 [compound S13, 2,2′-((2-(2-(2-(Bis(carboxymethyl)amino)-4-(((9-(4-methoxy-2-methylphenyl)-3-oxo-3H-xanthen-6-yl)oxy)methyl)-5-nitrophenoxy)ethoxy)-4-methoxyphenyl)azanediyl)diacetic acid]

increase in absorption around 350 nm when calcium ion concentration is raised [3]: < 5%
visible absorption at 430 nm as [Ca^2+] increases [3]: dramatic decrease
extinction coefficient ([3]; at 350 nm): 24000 M⁻¹ cm⁻¹
photochemical quantum yield (Φ) in the presence of Ca^2+ [2]: 4.8% and 4.8±0.2%
photochemical quantum yield (Φ) in the absence of Ca^2+ [2]: 0.008% and 0.0079±0.0003%
enhancement in photochemical quantum yield upon Ca^2+ binding [2]: 600 fold
Compound: COc1ccc(N(CC(=O)O)CC(=O)O)c(OCCOc2cc([N+](=O)[O-])c(COc3ccc4cc(C(=O)NC5CCC(N(CC(=O)O)CC(=O)O)CC5)c(=O)oc4c3)cc2N(CC(=O)O)CC(=O)O)c1 (stereo not shown) [compound 402, 2,2′((2-(2-(2-(Bis(carboxymethyl)amino)-4-(((3-(((1r,4r)-4-(bis(carboxymethyl)amino)cyclohexyl)carbamoyl)-2-oxo-2H-chromen-7-yl)oxy)methyl)-5-nitrophenoxy)ethoxy)-4-methoxyphenyl)azanediyl)diacetic acid]
Ca^2+ dependence of uncaging photochemistry ([2]; fluorescence of released coumarin vs 365 nm irradiation time, 10 mM CaCl2 or 10 mM EGTA): efficient photochemistry was observed only in the presence of calcium

effect of the modification on calcium affinity [4]: did not increase
Compound: O=C(O)CN(CC(=O)O)c1ccc(N2CCCC2)cc1OCCOc1cc([N+](=O)[O-])c(COc2ccc3cc(C(=O)NC4CCC(N(CC(=O)O)CC(=O)O)CC4)c(=O)oc3c2)cc1N(CC(=O)O)CC(=O)O (stereo not shown) [compound of FIG. 14, where R═H, 2,2′-((2-(2-(2-(Bis(carboxymethyl)amino)-4-(((3-(((1r,4r)-4-(bis(carboxymethyl)amino)cyclohexyl)carbamoyl)-2-oxo-2H-chromen-7-yl)oxy)methyl)-5-nitrophenoxy)ethoxy)-4-(pyrrolidin-1-yl)phenyl)azanediyl)diacetic acid]
